Data: patent publication US20020035061A1, “COMPOSITIONS AND METHODS FOR TREATING INFECTIONS USING CATIONIC PEPTIDES ALONE OR IN COMBINATION WITH ANTIBIOTICS” (priority 1996, published 2002)
Where two headings read alike, the source gives them in different places.

Columns and labels:
S. pneumoniae = assay: Agarose dilution assay (MIC); format: cell-based
K. pneumoniae = format: cell-based
[1] = tested on: MSSA (Smith, ATCC # 19640); assay: In vivo efficacy, MSSA infection; design: species or system S. aureus; details: formulation D, 60 min post-infection, end of eight day observation
[2] = tested on: microorganisms with acquired resistance; assay: microbe, parasite or virus in culture; format: cell-based
E. faecium = format: cell-based; details: E. faecium strain EFM003
E. cloacae = format: cell-based
[3] = tested on: inherently resistant microorganisms; assay: microbe, parasite or virus in culture; format: cell-based; details: S. aureus
H. influenzae = assay: Agarose dilution assay (MIC); format: cell-based; details: H. influenzae strain HIN002
S. maltophilia = format: cell-based
S. pyogenes = assay: Agarose dilution assay (MIC); format: cell-based; details: S. pyogenes strain SPY006
P. aeruginosa = format: cell-based
S. epidermidis = format: cell-based; details: S. epidermidis strain SE003
E. faecalis = format: cell-based; details: for MIC, Peptide: unmodified parent peptide
S. marcescens = format: cell-based
bacterial isolates = assay: microbe, parasite or virus in culture; format: cell-based
E. coli = format: cell-based
A. calcoaceticus = format: cell-based
S. aureus = format: cell-based; details: for MIC, Peptide: unmodified parent peptide
[4] = A. baumannii ABI001, Tobramycin section
[5] = P. aeruginosa 23, Piperacillin section
[6] = P. aeruginosa PA032, Tobramycin section
[7] = S. maltophilia SMA029, Tobramycin section
[8] = S. maltophilia SMA030, Tobramycin section
[9] = peptide + Piperacillin, P. aeruginosa 23
[10] = peptide + Tobramycin, A. baumannii ABI001
[11] = peptide + Tobramycin, P. aeruginosa PA032
[12] = peptide + Tobramycin, S. maltophilia SMA029
[13] = peptide + Tobramycin, S. maltophilia SMA030
[14] = S. aureus SA014 (also SA014 MRSA)

ILKKWVWWPWRRK [MBI 11F3CN]
MIC (S. pneumoniae; S. pneumoniae strain SBSPN3): >128 mg/L
MIC (S. pneumoniae; S. pneumoniae strain SPN044): >128 mg/L
MIC, Peptide (K. pneumoniae; K. pneumoniae KP001, unmodified parent peptide): 64 mg/L
MIC (K. pneumoniae; K. pneumoniae strain KP002): 64 mg/L
% Survival ([1]; 12 mg/kg ip): 0%
% Survival ([1]; 18 mg/kg ip): 10%
% Survival ([1]; 24 mg/kg ip): 90%
Peptide MIC + Tobramycin ([2]; A. baumannii ABI001): 16 mg/L
Tobramycin MIC + Peptide ([2]; A. baumannii ABI001): 0.5 mg/L
Peptide MIC Alone [2, 4]: 32 mg/L
Peptide MIC + Piperacillin ([2]; A. calcoaceticus 3): 4 mg/L
Piperacillin MIC + Peptide ([2]; A. calcoaceticus 3): 16 mg/L
Peptide MIC Alone ([2]; A. calcoaceticus 3, Piperacillin section): 32 mg/L
Peptide MIC + Piperacillin ([2]; P. aeruginosa 7): 64 mg/L
Piperacillin MIC + Peptide ([2]; P. aeruginosa 7): 64 mg/L
Peptide MIC Alone ([2]; P. aeruginosa 7, Piperacillin section): 128 mg/L
Peptide MIC + Piperacillin ([2]; P. aeruginosa 23): 0.5 mg/L
Piperacillin MIC + Peptide ([2]; P. aeruginosa 23): 64 mg/L
Peptide MIC Alone [2, 5]: 64 mg/L
Peptide MIC + Tobramycin ([2]; P. aeruginosa PA032): 64 mg/L
Tobramycin MIC + Peptide ([2]; P. aeruginosa PA032): 4 mg/L
Peptide MIC Alone [2, 6]: >128 mg/L
Peptide MIC + Piperacillin ([2]; S. maltophilia 2): 16 mg/L
Piperacillin MIC + Peptide ([2]; S. maltophilia 2): 16 mg/L
Peptide MIC Alone ([2]; S. maltophilia 2, Piperacillin section): 32 mg/L
Peptide MIC + Tobramycin ([2]; S. maltophilia SMA029): 32 mg/L
Tobramycin MIC + Peptide ([2]; S. maltophilia SMA029): 1 mg/L
Peptide MIC Alone [2, 7]: 128 mg/L
Peptide MIC + Tobramycin ([2]; S. maltophilia SMA030): 32 mg/L
Tobramycin MIC + Peptide ([2]; S. maltophilia SMA030): 1 mg/L
Peptide MIC Alone [2, 8]: 128 mg/L
FIC ([2]; peptide + Piperacillin, A. calcoaceticus 3): 0.63
FIC ([2]; peptide + Piperacillin, P. aeruginosa 7): 1.00
FIC [2, 9]: 0.51
FIC ([2]; peptide + Piperacillin, S. maltophilia 2): 0.75
FIC [2, 10]: 0.53
FIC [2, 11]: 0.50
FIC [2, 12]: 0.26
FIC [2, 13]: 0.26
MIC (E. faecium): 4 mg/L
MIC, Peptide (E. cloacae; E. cloacae ECL007, unmodified parent peptide): >128 mg/L
MIC (E. cloacae; E. cloacae strain ECL007): >128 mg/L
Peptide MIC + Tobramycin [3]: 2 mg/L
Peptide MIC Alone ([3]; Tobramycin section): 4 mg/L
FIC ([3]; peptide + Tobramycin): 0.51
MIC (H. influenzae): >128 mg/L
MIC, Peptide (S. maltophilia; S. maltophilia SMA002, unmodified parent peptide): 64 mg/L
MIC (S. maltophilia; S. maltophilia strain SMA002): 64 mg/L
MIC (S. pyogenes): 8 mg/L
MIC, Peptide (P. aeruginosa; P. aeruginosa PA004, unmodified parent peptide): 128 mg/L
MIC (P. aeruginosa; P. aeruginosa strain PA041): 128 mg/L
MIC (S. epidermidis): 2 mg/L
MIC, Peptide (E. faecalis; E. faecalis EFS001): 32 mg/L
MIC, Peptide (E. faecalis; E. faecalis EFS004): 16 mg/L
MIC, Peptide (E. faecalis; E. faecalis EFS008): 16 mg/L
MIC (E. faecalis; E. faecalis strain EFS002): 8 mg/L
MIC, Peptide (S. marcescens; S. marcescens SMS003, unmodified parent peptide): >128 mg/L
MIC (S. marcescens; S. marcescens strain SMS004): >128 mg/L
Peptide MIC + Tobramycin (bacterial isolates; A. baumannii ABI001): 16 mg/L
Tobramycin MIC + Peptide (bacterial isolates; A. baumannii ABI001): 0.5 mg/L
Peptide MIC Alone (bacterial isolates; [4]): 32 mg/L
Peptide MIC + Tobramycin (bacterial isolates; A. baumannii ABI002): 8 mg/L
Tobramycin MIC + Peptide (bacterial isolates; A. baumannii ABI002): 2 mg/L
Peptide MIC Alone (bacterial isolates; A. baumannii ABI002, Tobramycin section): 16 mg/L
Peptide MIC + Piperacillin (bacterial isolates; P. aeruginosa 23): 0.5 mg/L
Piperacillin MIC + Peptide (bacterial isolates; P. aeruginosa 23): 64 mg/L
Peptide MIC Alone (bacterial isolates; [5]): 64 mg/L
Peptide MIC + Piperacillin (bacterial isolates; P. aeruginosa 41): 64 mg/L
Piperacillin MIC + Peptide (bacterial isolates; P. aeruginosa 41): 4 mg/L
Peptide MIC Alone (bacterial isolates; P. aeruginosa 41, Piperacillin section): 128 mg/L
Peptide MIC + Tobramycin (bacterial isolates; P. aeruginosa PA032): 64 mg/L
Tobramycin MIC + Peptide (bacterial isolates; P. aeruginosa PA032): 4 mg/L
Peptide MIC Alone (bacterial isolates; [6]): >128 mg/L
Piperacillin MIC + Peptide (bacterial isolates; S. aureus 19 MRSA): 32 mg/L
Peptide MIC Alone (bacterial isolates; S. aureus 19 MRSA, Piperacillin section): 4 mg/L
Peptide MIC + Tobramycin (bacterial isolates; [14]): 2 mg/L
Tobramycin MIC + Peptide (bacterial isolates; [14]): 2 mg/L
Peptide MIC Alone (bacterial isolates; S. aureus SA014 (also SA014 MRSA), Tobramycin section): 4 mg/L
Peptide MIC + Piperacillin (bacterial isolates; S. aureus SB3MRSA): 2 mg/L
Piperacillin MIC + Peptide (bacterial isolates; S. aureus SB3MRSA): 64 mg/L
Peptide MIC Alone (bacterial isolates; S. aureus SB3MRSA, Piperacillin section): 8 mg/L
Peptide MIC + Tobramycin (bacterial isolates; S. haemolyticus SHA005): 2 mg/L
Tobramycin MIC + Peptide (bacterial isolates; S. haemolyticus SHA005): 0.25 mg/L
Peptide MIC Alone (bacterial isolates; S. haemolyticus SHA005, Tobramycin section): 4 mg/L
Peptide MIC + Tobramycin (bacterial isolates; S. maltophilia SMA029): 4 mg/L
Tobramycin MIC + Peptide (bacterial isolates; S. maltophilia SMA029): 32 mg/L
Peptide MIC Alone (bacterial isolates; [7]): 128 mg/L
Peptide MIC + Tobramycin (bacterial isolates; S. maltophilia SMA030): 32 mg/L
Tobramycin MIC + Peptide (bacterial isolates; S. maltophilia SMA030): 1 mg/L
Peptide MIC Alone (bacterial isolates; [8]): 128 mg/L
FIC (bacterial isolates; [9]): 0.51
FIC (bacterial isolates; peptide + Piperacillin, P. aeruginosa 41): 0.63
FIC (bacterial isolates; peptide + Piperacillin, S. aureus 19 MRSA): 0.38
FIC (bacterial isolates; peptide + Piperacillin, S. aureus SB3MRSA): 0.50
FIC (bacterial isolates; [10]): 0.53
FIC (bacterial isolates; peptide + Tobramycin, A. baumannii ABI002): 1.00
FIC (bacterial isolates; [11]): 0.50
FIC (bacterial isolates; peptide + Tobramycin, S. aureus SA014 (also SA014 MRSA)): 0.51
FIC (bacterial isolates; peptide + Tobramycin, S. haemolyticus SHA005): 0.56
FIC (bacterial isolates; [12]): 0.28
FIC (bacterial isolates; [13]): 0.26
MIC, Peptide (E. coli; E. coli ECO005, unmodified parent peptide): 16 mg/L
MIC (E. coli; E. coli strain ECO002): 8 mg/L
MIC, Peptide (A. calcoaceticus; A. calcoaceticus AC002, unmodified parent peptide): 2 mg/L
MIC (A. calcoaceticus; A. calcoaceticus strain AC002): 4 mg/L
MIC, Peptide (S. aureus; S. aureus SA010): 2 mg/L
MIC, Peptide (S. aureus; S. aureus SA011): 8 mg/L
MIC, Peptide (S. aureus; S. aureus SA014): 8 mg/L
MIC, Peptide (S. aureus; S. aureus SA018): 16 mg/L
MIC, Peptide (S. aureus; S. aureus SA025): 2 mg/L
MIC, Peptide (S. aureus; S. aureus SA093): 1 mg/L
MIC (S. aureus; S. aureus strain SA005): 2 mg/L
